Each structure is given as a SMILES string. Some results are limits rather than exact numbers.

By inhibition is commonly meant the percentage by which the read-out fell short of the control.

For experiment [1], the target named is T1, Poly [ADP-ribose] polymerase tankyrase-1 (Homo sapiens) (UniProt O95271).
T1 sequence (whole entry): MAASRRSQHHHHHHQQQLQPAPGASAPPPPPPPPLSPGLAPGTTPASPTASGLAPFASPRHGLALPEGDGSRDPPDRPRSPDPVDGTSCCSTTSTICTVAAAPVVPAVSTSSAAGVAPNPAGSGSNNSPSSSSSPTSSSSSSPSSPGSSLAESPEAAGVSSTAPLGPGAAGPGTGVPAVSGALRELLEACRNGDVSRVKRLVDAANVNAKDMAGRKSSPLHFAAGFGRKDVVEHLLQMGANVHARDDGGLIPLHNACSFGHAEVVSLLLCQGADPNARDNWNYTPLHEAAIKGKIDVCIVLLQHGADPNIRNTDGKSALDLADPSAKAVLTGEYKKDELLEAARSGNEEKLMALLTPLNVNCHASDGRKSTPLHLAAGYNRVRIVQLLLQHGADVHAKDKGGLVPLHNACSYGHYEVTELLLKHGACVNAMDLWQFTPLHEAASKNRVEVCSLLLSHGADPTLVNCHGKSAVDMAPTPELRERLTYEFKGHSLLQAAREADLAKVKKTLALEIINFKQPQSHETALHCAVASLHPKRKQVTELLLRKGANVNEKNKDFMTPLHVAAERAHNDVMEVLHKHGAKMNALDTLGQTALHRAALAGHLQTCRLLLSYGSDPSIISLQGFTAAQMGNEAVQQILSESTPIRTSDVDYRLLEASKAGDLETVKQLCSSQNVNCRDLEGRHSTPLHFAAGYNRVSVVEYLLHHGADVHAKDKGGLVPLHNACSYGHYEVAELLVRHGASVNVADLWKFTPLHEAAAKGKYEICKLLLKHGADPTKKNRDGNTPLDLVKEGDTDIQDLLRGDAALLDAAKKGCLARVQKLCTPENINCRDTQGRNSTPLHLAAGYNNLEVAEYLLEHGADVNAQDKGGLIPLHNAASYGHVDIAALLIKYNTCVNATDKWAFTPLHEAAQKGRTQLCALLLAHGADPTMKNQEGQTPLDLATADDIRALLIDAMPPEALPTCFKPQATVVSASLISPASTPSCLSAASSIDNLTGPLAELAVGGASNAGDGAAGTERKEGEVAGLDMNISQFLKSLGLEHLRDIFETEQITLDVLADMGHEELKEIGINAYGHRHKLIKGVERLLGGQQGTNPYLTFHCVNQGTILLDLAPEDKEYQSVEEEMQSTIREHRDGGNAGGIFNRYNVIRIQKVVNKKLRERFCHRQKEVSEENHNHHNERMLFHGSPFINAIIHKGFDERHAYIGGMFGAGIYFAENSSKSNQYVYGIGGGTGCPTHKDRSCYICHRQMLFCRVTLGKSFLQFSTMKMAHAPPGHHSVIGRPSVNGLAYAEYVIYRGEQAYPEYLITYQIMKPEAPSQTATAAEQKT
Kind of experiment: Inhibition of N-terminal GST-tagged human TNKS1 (1001 to 1327 residues) expressed in baculovirus-infected Sf9 cells assessed as reduction in NAD+-dependent ADP ribosylation using histone as substrate at 10 uM incubated for 1 hr in presence of biotinylated NAD+ and activated DNA by chemiluminescence based microplate reader assay relative to control.

Experiment [2] has as its target Protein mono-ADP-ribosyltransferase PARP14 (Homo sapiens) (UniProt Q460N5). Kind of experiment: Inhibition of N-terminal His-GST tagged human PARP14 (1470 to 1801 residues) expressed in baculovirus infected Sf9 cells assessed as reduction in NAD+-dependent ADP ribosylation using histone as substrate at 10 uM incubated for 1 hr in presence of biotinylated NAD+ and activated DNA by chemiluminescence based microplate reader assay relative to control.

The target of experiment [3] is T2, Protein mono-ADP-ribosyltransferase PARP10 (Homo sapiens) (UniProt Q53GL7).
T2 sequence (whole entry): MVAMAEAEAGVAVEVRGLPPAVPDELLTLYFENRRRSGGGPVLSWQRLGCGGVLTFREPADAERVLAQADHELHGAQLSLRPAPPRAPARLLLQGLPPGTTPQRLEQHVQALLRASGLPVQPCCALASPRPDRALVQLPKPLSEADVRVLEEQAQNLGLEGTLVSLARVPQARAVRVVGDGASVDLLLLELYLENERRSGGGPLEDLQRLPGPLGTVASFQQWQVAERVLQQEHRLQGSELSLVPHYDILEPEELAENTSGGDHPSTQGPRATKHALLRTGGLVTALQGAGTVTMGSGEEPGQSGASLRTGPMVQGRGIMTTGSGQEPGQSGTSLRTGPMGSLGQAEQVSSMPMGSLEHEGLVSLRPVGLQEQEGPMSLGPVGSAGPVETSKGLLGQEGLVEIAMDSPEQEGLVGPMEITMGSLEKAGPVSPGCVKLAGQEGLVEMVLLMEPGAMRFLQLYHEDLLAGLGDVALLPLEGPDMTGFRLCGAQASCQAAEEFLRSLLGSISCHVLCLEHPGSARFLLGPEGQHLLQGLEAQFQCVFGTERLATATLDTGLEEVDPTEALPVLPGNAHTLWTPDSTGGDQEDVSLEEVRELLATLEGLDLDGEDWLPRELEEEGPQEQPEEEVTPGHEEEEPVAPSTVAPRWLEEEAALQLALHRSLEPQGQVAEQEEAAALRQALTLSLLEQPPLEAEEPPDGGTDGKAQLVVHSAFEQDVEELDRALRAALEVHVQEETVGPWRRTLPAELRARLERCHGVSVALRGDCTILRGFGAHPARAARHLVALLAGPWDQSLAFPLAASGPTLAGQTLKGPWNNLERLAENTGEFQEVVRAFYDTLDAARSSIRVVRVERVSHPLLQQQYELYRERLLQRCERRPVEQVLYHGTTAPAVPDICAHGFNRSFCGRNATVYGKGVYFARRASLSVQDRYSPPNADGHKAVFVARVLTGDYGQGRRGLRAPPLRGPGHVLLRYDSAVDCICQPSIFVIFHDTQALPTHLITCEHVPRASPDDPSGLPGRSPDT
Kind of experiment: Inhibition of N-terminal FLAG-tagged and C-terminal strep-tagged human PARP10 (805 to 1025 residues) expressed in baculovirus infected Sf9 cells assessed as reduction in NAD+-dependent ADP ribosylation using histone as substrate at 1 uM incubated for 1 hr in presence of biotinylated NAD+ and activated DNA by chemiluminescence based microplate reader assay.

The target in experiment [4] is T2, Protein mono-ADP-ribosyltransferase PARP10 (Homo sapiens). Kind of experiment: Inhibition of N-terminal FLAG-tagged and C-terminal strep-tagged human PARP10 (805 to 1025 residues) expressed in baculovirus infected Sf9 cells assessed as reduction in NAD+-dependent ADP ribosylation using histone as substrate at 10 uM incubated for 1 hr in presence of biotinylated NAD+ and activated DNA by chemiluminescence based microplate reader assay relative to control.

The target in experiment [5] is Protein mono-ADP-ribosyltransferase PARP14 (Homo sapiens) (UniProt Q460N5). Kind of experiment: Inhibition of N-terminal His-GST tagged human PARP14 (1470 to 1801 residues) expressed in baculovirus infected Sf9 cells assessed as reduction in NAD+-dependent ADP ribosylation using histone as substrate at 1 uM incubated for 1 hr in presence of biotinylated NAD+ and activated DNA by chemiluminescence based microplate reader assay relative to control.
Chain of Protein mono-ADP-ribosyltransferase PARP14 (Homo sapiens) (Q460N5 whole entry, the tested form may be a part): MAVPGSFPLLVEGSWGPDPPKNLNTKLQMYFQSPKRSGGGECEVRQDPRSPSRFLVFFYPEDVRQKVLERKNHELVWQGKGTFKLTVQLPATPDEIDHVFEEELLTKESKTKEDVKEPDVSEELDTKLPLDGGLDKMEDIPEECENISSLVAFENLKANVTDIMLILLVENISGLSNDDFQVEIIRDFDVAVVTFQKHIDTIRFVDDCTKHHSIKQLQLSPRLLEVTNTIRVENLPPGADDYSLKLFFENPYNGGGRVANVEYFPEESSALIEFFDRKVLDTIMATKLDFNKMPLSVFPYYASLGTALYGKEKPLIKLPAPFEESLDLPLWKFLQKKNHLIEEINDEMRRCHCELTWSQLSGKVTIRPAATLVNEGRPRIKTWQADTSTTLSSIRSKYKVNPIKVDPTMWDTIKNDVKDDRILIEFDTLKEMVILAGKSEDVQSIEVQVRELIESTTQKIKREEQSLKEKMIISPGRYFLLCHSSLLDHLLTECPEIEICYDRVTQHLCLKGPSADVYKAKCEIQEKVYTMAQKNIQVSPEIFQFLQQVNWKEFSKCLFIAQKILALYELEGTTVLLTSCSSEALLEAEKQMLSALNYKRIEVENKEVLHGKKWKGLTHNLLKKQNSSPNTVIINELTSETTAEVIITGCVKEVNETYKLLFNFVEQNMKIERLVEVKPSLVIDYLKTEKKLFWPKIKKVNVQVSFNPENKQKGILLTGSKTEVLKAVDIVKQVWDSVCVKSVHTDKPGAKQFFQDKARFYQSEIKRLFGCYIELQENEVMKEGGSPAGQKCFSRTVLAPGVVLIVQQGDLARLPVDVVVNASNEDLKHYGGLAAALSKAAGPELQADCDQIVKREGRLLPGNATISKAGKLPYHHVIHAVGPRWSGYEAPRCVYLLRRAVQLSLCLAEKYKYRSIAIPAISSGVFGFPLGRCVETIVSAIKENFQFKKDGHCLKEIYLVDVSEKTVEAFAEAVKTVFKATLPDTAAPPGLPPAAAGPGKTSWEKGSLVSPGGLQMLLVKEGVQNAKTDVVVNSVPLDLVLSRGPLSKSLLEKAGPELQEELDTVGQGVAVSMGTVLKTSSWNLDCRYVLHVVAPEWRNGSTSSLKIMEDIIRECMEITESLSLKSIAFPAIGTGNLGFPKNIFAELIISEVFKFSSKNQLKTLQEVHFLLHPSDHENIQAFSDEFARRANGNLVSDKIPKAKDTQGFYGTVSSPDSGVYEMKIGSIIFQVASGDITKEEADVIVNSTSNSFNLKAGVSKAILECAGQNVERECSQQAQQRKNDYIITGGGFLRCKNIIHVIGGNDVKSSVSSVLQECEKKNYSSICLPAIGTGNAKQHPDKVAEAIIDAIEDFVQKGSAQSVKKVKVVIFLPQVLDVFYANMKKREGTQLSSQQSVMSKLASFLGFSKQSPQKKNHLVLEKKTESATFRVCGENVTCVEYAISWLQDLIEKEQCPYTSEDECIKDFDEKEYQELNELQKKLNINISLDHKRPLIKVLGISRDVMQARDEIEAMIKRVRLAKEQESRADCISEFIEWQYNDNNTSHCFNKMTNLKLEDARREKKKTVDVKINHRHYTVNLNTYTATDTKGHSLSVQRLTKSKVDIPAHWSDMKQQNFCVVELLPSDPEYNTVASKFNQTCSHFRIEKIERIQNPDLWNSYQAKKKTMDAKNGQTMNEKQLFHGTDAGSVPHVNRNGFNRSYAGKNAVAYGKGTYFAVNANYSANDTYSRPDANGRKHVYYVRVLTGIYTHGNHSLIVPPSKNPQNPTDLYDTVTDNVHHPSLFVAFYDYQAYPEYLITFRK

`CNC(=O)[C@H](CNC(=O)CCc1nc2ccccc2[nH]c1=O)NC(=O)c1ccc2c(c1)CCCC2=O`: the inhibition in experiment [1] and in experiment [2] was below 25% in each case.

With `CC1(CNC(=O)COc2cccc3c2CCCC3=O)CCN(C(=O)CCc2nc3ccccc3[nH]c2=O)CC1`, the inhibition in experiment [3] was 25%; in experiment [4], 90%; in experiment [5] it was 21%; in experiment [1], above 50%.

The record behind these values is ChEMBL document CHEMBL4699460, “Integrating DNA-encoded chemical libraries with virtual combinatorial library screening: Optimizing a PARP10 inhibitor” (Bioorg Med Chem Lett, 2020).
